Data as given in ChEMBL document CHEMBL5465560, “Selectivity Literature for EUbOPEN Chemogenomic Library” (2024).

Legend:
[1] = target: Cyclin-dependent kinase 3 (Homo sapiens) (UniProt Q00526); assay: Selectivity interaction (KinomeScan (DiscoverX)) EUB0001049a CDK3; conditions: at 1 µM
[2] = target: Mitogen-activated protein kinase kinase kinase 10 (Homo sapiens) (UniProt Q02779); assay: Selectivity interaction (KinomeScan (DiscoverX)) EUB0000666a MAP3K10; conditions: at 10 µM
[3] = target: T1, Serine/threonine-protein kinase 17B (Homo sapiens) (UniProt O94768); assay: Selectivity interaction (KinomeScan (DiscoverX)) EUB0001079a STK17B; conditions: at 1 µM
T1 sequence (whole entry): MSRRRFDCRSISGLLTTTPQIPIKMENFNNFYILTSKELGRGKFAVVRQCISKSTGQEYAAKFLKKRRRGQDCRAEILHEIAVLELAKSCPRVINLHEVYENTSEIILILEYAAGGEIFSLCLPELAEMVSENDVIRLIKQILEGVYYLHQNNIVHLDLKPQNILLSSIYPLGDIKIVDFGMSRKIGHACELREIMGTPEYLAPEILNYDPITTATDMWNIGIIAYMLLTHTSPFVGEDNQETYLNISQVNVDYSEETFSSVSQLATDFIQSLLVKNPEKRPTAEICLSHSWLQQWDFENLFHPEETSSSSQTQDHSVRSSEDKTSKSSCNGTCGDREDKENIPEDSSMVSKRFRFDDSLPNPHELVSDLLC

[4] = target: Serine/threonine-protein kinase 16 (Homo sapiens, UniProt O75716); assay: Selectivity interaction (ActivX KiNativ screen (kinase selectivity in THP-1 cell lysates)) EUB0000639a STK16; assay type: subcellular; conditions: lysate
[5] = target: Ribosomal protein S6 kinase alpha-5 (Homo sapiens) (UniProt O75582); assay: Selectivity interaction (ActivX KiNativ screen (kinase selectivity in THP-1 cell lysates)) EUB0000639a RPS6KA5; assay type: subcellular; conditions: lysate
[6] = target: T2, Dual specificity mitogen-activated protein kinase kinase 3 (Homo sapiens) (UniProt P46734); assay: Selectivity interaction (ActivX KiNativ screen (ex vivo kinase selectivity in human PBMCs)) EUB0001619a MAP2K3; assay type: cell-based; conditions: PBMC, at 1 µM
T2 sequence (whole entry): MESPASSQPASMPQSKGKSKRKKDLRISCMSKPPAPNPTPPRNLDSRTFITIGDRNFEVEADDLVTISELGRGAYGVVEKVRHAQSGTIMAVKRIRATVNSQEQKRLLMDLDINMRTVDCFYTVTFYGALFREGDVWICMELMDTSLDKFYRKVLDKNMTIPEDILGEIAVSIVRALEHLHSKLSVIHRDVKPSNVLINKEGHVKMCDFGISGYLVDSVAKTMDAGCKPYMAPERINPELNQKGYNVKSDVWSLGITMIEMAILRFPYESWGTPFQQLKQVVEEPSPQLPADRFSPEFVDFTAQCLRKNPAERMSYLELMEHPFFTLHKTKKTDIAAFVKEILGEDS

[7] = target: Leucine-rich repeat serine/threonine-protein kinase 2 (Homo sapiens, UniProt Q5S007); conditions: PBMC, at 1 µM
[8] = target: Potassium voltage-gated channel subfamily A member 5 (Homo sapiens) (UniProt P22460); assay: Selectivity interaction (Panel of kinases, GPCRs, ion channels and transporters (enzymatic assay)) EUB0000266bCl KCNA5
[9] = target: Mitogen-activated protein kinase kinase kinase 9 (Homo sapiens) (UniProt P80192); assay: Selectivity interaction (KinomeScan (DiscoverX)) EUB0000607a MAP3K9; conditions: at 10 µM
[10] = target: Protein kinase C theta type (Homo sapiens, UniProt Q04759); assay: Selectivity interaction (SelectScreen profiling (Invitrogen)) EUB0000607a PRKCQ; conditions: at 2 µM
[11] = target: T3, Mitogen-activated protein kinase kinase kinase 19 (Homo sapiens) (UniProt Q56UN5); assay: Selectivity interaction (Kinase panel (Z-LYTE Assay)) EUB0001632a MAP3K19; conditions: at 10 µM
T3 sequence (whole entry): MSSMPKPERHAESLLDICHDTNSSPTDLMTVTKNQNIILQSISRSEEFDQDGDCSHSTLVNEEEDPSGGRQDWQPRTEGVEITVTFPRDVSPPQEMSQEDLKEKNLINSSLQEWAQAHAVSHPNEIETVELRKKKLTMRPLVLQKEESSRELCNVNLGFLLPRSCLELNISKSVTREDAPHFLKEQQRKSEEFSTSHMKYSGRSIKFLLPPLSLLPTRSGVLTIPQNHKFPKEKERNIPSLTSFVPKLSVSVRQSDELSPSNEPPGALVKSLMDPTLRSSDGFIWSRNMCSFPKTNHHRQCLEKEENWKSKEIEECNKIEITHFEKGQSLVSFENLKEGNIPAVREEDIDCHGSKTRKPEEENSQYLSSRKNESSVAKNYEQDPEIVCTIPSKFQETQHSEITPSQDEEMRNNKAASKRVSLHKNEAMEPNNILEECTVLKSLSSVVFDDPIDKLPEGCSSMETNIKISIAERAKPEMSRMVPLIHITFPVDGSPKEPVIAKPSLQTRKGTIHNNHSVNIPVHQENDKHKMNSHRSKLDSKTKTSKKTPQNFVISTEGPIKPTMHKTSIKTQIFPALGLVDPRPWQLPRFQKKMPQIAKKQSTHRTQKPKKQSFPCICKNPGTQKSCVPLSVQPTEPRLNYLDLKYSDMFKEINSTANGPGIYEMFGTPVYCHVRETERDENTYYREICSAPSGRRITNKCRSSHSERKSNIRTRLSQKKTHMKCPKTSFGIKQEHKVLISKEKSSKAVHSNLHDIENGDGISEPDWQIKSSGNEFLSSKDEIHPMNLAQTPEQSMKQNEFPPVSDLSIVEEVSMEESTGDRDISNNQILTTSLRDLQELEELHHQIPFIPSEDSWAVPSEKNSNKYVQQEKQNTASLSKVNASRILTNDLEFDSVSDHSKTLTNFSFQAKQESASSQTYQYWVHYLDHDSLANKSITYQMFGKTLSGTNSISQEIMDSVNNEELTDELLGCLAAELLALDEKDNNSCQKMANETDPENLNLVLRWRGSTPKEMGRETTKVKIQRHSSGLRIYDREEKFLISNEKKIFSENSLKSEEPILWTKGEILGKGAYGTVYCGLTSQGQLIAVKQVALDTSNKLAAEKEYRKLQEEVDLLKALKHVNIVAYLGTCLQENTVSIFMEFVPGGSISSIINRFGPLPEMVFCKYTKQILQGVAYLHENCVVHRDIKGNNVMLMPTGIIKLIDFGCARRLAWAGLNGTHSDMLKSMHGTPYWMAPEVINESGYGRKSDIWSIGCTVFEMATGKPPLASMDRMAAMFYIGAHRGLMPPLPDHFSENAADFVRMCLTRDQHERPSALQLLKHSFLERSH

[12] = target: Ephrin type-A receptor 5 (Homo sapiens) (UniProt P54756); assay: Selectivity interaction (ProQinase) EUB0000171b EPHA5
Ephrin type-A receptor 5 (Homo sapiens), sequence (P54756 whole entry): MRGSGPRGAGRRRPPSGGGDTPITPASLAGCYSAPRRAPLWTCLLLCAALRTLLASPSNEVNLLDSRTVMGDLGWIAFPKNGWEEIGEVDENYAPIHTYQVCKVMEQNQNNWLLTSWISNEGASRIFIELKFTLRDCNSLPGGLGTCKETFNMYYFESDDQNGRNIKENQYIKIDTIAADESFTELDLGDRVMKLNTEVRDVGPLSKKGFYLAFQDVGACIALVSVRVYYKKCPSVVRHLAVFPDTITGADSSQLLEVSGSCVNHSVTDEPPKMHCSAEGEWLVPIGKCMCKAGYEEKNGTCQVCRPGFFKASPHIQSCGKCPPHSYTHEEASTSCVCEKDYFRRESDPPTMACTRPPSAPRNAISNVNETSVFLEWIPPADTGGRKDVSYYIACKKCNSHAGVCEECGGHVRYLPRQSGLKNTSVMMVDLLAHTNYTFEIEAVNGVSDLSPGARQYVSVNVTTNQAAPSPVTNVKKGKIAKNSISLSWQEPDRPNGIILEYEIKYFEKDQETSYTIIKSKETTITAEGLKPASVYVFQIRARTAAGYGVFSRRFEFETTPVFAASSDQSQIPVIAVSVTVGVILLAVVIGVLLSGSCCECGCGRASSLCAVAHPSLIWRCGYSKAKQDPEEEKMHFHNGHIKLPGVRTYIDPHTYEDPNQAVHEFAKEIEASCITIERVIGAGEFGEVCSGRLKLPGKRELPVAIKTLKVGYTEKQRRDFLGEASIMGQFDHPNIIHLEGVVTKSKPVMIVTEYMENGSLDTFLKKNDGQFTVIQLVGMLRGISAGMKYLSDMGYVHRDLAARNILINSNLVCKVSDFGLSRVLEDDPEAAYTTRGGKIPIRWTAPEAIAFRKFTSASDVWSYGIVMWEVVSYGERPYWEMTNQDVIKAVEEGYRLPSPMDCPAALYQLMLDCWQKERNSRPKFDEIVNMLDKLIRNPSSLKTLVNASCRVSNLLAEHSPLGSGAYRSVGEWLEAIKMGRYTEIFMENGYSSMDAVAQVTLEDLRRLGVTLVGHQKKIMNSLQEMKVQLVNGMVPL

Serine/threonine-protein kinase 16, sequence (O75716 whole entry): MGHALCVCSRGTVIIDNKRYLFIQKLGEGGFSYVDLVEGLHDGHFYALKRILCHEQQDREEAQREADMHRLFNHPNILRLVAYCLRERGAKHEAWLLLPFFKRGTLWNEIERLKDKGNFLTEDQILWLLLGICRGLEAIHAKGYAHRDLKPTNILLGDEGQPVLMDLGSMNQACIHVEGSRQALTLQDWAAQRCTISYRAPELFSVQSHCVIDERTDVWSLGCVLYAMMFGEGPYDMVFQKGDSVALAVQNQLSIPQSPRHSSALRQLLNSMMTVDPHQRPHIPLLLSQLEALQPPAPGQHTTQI
Ribosomal protein S6 kinase alpha-5 (Homo sapiens), sequence (O75582 whole entry, looked up): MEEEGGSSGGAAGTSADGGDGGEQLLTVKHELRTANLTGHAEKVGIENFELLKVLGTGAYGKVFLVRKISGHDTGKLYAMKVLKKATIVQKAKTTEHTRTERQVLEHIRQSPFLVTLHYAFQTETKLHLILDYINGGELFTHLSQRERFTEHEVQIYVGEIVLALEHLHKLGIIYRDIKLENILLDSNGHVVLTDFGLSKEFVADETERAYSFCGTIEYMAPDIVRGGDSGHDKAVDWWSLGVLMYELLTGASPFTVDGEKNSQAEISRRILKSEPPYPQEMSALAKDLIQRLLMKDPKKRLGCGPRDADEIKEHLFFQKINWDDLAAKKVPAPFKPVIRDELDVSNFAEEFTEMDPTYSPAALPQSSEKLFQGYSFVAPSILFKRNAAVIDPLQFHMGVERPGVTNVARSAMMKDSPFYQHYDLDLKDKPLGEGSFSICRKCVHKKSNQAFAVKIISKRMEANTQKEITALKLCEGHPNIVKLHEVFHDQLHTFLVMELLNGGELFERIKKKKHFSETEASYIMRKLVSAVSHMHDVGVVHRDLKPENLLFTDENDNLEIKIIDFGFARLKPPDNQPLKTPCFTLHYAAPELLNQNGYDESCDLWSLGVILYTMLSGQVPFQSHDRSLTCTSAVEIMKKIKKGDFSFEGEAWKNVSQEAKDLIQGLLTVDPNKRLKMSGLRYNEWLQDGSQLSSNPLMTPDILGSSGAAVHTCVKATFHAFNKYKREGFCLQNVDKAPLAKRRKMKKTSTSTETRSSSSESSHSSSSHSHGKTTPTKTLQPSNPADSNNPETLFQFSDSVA
Protein kinase C theta type, sequence (Q04759 whole entry, looked up): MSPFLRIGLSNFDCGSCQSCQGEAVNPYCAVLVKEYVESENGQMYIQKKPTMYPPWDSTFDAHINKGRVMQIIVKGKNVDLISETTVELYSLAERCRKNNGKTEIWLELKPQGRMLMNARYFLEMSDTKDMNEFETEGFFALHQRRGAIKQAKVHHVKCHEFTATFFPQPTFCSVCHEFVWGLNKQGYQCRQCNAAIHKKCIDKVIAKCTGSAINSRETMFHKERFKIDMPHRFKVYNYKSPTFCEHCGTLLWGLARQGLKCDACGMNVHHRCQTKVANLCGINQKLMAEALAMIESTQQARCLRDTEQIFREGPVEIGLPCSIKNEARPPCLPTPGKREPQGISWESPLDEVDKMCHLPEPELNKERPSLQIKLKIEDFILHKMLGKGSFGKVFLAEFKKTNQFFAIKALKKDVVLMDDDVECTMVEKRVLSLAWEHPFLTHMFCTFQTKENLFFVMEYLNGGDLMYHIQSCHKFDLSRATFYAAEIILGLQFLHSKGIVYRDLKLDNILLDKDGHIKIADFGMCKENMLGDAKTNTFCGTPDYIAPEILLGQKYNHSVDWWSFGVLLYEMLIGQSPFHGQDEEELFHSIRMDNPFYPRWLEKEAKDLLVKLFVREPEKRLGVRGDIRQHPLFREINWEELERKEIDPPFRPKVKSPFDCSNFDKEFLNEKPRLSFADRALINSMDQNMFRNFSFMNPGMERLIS
Potassium voltage-gated channel subfamily A member 5 (Homo sapiens), sequence (P22460 whole entry): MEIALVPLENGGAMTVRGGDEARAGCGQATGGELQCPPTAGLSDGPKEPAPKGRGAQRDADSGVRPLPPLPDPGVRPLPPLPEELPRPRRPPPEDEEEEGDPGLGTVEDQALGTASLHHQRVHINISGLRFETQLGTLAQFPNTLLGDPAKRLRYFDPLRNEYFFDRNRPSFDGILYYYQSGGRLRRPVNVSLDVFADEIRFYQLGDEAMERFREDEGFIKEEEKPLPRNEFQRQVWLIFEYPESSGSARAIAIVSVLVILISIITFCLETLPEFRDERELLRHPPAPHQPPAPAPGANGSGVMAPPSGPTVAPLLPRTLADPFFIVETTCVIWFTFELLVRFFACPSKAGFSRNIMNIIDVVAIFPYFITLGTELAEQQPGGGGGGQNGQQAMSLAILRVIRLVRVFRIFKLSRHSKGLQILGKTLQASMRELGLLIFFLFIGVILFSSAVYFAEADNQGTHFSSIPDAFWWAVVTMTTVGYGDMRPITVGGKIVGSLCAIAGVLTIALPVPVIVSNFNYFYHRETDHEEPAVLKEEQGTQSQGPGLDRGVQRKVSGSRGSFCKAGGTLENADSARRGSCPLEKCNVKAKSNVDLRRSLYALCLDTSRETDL
Cyclin-dependent kinase 3 (Homo sapiens), sequence (Q00526 whole entry, looked up): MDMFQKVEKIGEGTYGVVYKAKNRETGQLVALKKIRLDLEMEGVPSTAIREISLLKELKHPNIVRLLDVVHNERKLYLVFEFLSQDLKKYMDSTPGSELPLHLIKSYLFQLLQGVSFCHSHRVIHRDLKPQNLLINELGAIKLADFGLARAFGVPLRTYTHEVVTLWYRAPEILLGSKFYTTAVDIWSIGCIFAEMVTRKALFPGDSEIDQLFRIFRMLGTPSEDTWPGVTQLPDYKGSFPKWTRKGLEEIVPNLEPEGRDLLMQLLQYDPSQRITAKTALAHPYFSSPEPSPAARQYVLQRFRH
Mitogen-activated protein kinase kinase kinase 10 (Homo sapiens), sequence (Q02779 whole entry, looked up): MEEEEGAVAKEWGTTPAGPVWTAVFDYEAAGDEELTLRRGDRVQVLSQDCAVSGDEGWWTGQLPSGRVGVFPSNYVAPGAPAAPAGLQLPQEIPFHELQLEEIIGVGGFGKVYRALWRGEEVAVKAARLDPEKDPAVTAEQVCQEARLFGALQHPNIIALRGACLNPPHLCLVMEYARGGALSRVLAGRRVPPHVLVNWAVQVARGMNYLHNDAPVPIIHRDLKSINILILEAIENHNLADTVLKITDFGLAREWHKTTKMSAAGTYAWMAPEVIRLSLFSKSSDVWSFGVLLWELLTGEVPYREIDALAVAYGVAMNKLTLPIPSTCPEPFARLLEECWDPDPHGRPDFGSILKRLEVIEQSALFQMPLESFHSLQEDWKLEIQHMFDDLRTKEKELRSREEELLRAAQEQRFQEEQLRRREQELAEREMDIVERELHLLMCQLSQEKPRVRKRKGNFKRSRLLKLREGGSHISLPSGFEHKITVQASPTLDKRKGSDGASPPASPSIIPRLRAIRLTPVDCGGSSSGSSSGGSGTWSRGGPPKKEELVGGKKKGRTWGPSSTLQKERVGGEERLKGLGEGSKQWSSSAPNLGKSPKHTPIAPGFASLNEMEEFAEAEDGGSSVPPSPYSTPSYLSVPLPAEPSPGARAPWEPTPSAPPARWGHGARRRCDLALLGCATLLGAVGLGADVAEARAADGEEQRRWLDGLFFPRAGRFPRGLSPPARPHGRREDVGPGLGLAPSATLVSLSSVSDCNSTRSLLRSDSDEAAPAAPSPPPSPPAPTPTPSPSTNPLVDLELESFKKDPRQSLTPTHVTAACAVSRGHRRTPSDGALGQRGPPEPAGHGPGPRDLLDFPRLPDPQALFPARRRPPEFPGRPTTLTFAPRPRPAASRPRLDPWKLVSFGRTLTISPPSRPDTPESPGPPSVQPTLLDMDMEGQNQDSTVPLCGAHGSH

With COc1cc(Nc2nc(C)cc(-c3cnn4nc(OC)ccc34)n2)cc(C(F)(F)F)c1 the % of control [1] was 90%.
For O=C(NOC[C@H](O)CO)c1ccc(F)c(F)c1Nc1ccc(I)cc1F, the % of control [2] was 100%.
Nc1cnc(N2CCc3cc(S(=O)(=O)Nc4c(F)cc(Cl)cc4F)cc(N4CCCC4=O)c32)nc1 [TP-020n] gave a % of control [3] of 100%.
CC[C@@H]1[C@H](F)C(=O)N[C@@H]1COc1nccc2cc(C(N)=O)c(OC)cc12 [ZIMLOVISERTIB] showed a % of inhibition ([4]; at 0.01 µM) of 10.7%, a % of inhibition ([4]; at 0.04 µM) of 27.8% and a % of inhibition ([4]; at 0.2 µM) of 22.2%. The % of inhibition ([4]; at 1 µM) was 67.2%, the % of inhibition ([4]; at 5 µM) was > 94% and the % of inhibition ([5]; at 0.01 µM) was 2.2%. For the same compound, the % of inhibition ([5]; at 0.04 µM) was -1%, the % of inhibition ([5]; at 0.2 µM) was -6.1% and the % of inhibition ([5]; at 1 µM) was -9.7%. The % of inhibition ([5]; at 5 µM) was -27.5%.
Compound N#Cc1cccc(-c2c[nH]c3ncnc(N4CCOCC4)c23)c1 has a % of inhibition [6] of -5% and a % of inhibition [7] of 94%.
CCn1c(-c2nc3cc(C(=O)N4CCCC(N)C4)ccc3n2C)cc2ccccc21 (stereo unspecified) was tested, and the pXC50 [8] was < 4.3 M.
For CNC(=O)Nc1ccc(-c2nc(N3CC4CCC(C3)O4)c3cnn(C4CCC5(CC4)OCCO5)c3n2)cc1, the % of control [9] was 97% and the % of inhibition [10] was 5%.
Cn1cc(-n2cnc3c(NCc4nc5cc(Cl)c(Cl)cc5[nH]4)nc(N4CCOCC4)nc32)cn1 showed a % of control [11] of -3.06%.
In the case of C=CC(=O)Nc1cccc(C(=O)Nc2ccc(Nc3cc(-c4[nH]c(SC)nc4C)ccn3)cc2)c1, the % of control ([12]; at 1 µM) is reported as 94% and the % of control ([12]; at 5 µM) is reported as 87%.
